Results: patent US10285989B2, “Pyrimidinone amide compounds as PDE2 inhibitors” (Merck Sharp & Dohme Corp., priority 2015, dated 2019)
Like-named read-outs stand apart in the source and are kept apart here.

Legend:
Rhesus PDE2A3 = Rhesus PDE2A3 (Macaca mulatta, UniProt B3VTJ2); assay: PDE2 fluorescence polarization (IMAP FP) inhibition assay, rhesus PDE2A3; type: biochemical, rhesus macaque; conditions: for inhibition at 1 µM: read-out: Rhesus PDE2 % inhibition at a given concentration - Lab A
Description: A Labcyte Echo 555 (Labcyte, Sunnyvale, Calif.) is used to dispense 200 nL from each well of the titration plate to the 384 well assay plate. Ten microliters of a solution of enzyme (1/2000 final dilution from aliquots; sufficient to produce 20% substrate conversion) was added to the assay plate. Next 10 uL of a separate solution of the substrate FAM-labeled cAMP (50 nM final concentration product # R^7506 from Molecular Devices) and the activator cGMP (1 uM final concentration), prepared in the assay buffer (10 mM Tris HCl, pH 7.2, 10 mM MgCl2, 0.05% NaN3 0.01% Tween-20, and 1 mM DTT) was added to the assay plate and shaken to mix. The reaction is allowed to proceed at room temperature for 60 minutes. A binding solution is then made from the kit components, comprised of 80% Solution A, 20% Solution B and binding reagent at a volume of 1/600 the total binding solution. The enzymatic reaction is stopped by addition of 60 μL of the binding solution to each well of the assay plates and the plates are sealed and shaken for 30 seconds. The plate was incubated at room temperature for at least one hour prior to determining the fluorescence polarization (FP). The parallel and perpendicular fluorescence of each well of the plate was measured using a Tecan Genios Pro plate reader (Tecan, Switzerland) or Perkin Elmer EnVision™ plate reader (Waltham, Mass.). Fluorescence polarization (mP) was calculated from the parallel (S) and perpendicular (P) fluorescence of each sample well and the analogous values for the median control well, containing only substrate (So and Po), using the following equation: Polarization (mP)=1000*(S/So−P/Po)/(S/So+P/Po).
Dose-inhibition profiles for each compound were characterized by fitting the mP data to a four-parameter equation given below.
An apparent (KM) for FAM-labeled cAMP of ˜10 uM was used.

human PDE2A1 = human PDE2A1 (Homo sapiens (Human), UniProt O00408); assay: PDE2 IMAP FP inhibition assay, human PDE2A1 (selectivity panel format); type: biochemical
Chain of human PDE2A1 (O00408 other isoform, or with tags, fused parts or gaps): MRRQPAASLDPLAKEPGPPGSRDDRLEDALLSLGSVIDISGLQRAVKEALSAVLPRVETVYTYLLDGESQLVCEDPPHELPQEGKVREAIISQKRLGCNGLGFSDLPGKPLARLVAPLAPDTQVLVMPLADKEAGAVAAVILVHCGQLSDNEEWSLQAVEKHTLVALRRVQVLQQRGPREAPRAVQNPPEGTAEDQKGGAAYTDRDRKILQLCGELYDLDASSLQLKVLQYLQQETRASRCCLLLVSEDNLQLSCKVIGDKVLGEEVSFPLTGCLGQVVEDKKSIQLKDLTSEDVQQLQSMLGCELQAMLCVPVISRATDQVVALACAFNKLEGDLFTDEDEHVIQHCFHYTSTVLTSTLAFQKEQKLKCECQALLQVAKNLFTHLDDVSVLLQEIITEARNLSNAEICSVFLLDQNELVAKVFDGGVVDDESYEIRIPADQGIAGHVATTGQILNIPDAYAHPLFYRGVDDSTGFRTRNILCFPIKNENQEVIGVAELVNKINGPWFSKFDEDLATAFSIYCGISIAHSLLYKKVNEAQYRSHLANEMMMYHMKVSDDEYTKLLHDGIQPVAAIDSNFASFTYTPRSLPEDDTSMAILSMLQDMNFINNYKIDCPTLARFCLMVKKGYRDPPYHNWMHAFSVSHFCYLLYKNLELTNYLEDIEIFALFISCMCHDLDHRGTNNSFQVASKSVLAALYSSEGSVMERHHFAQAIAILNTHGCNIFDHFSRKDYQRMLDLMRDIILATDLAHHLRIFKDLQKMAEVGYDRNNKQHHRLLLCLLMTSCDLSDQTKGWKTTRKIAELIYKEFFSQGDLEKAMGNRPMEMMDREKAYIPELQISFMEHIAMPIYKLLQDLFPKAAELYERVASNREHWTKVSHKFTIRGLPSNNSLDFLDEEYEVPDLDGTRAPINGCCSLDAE
Description: Selectivity for PDE2, as compared to other PDE families, was assessed using the IMAP® technology. Human PDE10A2 enzyme was prepared from cytosolic fractions of transiently transfected HEK cells.
A Labcyte POD 810 (Labcyte, Sunnyvale, Calif.) was used to dispense 200 nL from each well of the titration plate to make eleven copies of the assay plate for each titration, one copy for each PDE enzyme. A solution of each enzyme (dilution from aliquots, sufficient to produce 20% substrate conversion) and a separate solution of FAM-labeled cAMP or FAM-labeled cGMP from Molecular Devices (Sunnyvale, Calif., product # R7506 or cGMP#R7508), at a final concentration of 50 nM were made in the assay buffer (10 mM Tris HCl, pH 7.2, 10 mM MgCl2, 0.05% NaN3 0.01% Tween-20, and 1 mM DTT). Note that the substrate for PDE2 is 50 nM FAM cAMP containing 1000 nM of cGMP. The enzyme and the substrate were then added to the assay plates in two consecutive additions of 10 μL and then shaken to mix. The reaction was allowed to proceed at room temperature for 60 minutes. A binding solution was then made from the kit components, comprised of 80% Solution A, 20% Solution B and binding reagent at a volume of 1/600 the total binding solution. The enzymatic reaction was stopped by addition of 60 μL of the binding solution to each well of the assay plate. The plates were sealed and shaken for 10 seconds. The plates were incubated at room temperature for one hour, then the parallel and perpendicular fluorescence was measured using a Tecan Genios Pro plate reader (Tecan, Switzerland). […] The intrinsic PDE2 inhibitory activity of a compound which may be used in accordance with the present invention may be determined by these assays. […]

[1] = Lab B, read-out: Human PDE2 Ki (nM) - Lab B

Chain of Rhesus PDE2A3 (B3VTJ2 1-941): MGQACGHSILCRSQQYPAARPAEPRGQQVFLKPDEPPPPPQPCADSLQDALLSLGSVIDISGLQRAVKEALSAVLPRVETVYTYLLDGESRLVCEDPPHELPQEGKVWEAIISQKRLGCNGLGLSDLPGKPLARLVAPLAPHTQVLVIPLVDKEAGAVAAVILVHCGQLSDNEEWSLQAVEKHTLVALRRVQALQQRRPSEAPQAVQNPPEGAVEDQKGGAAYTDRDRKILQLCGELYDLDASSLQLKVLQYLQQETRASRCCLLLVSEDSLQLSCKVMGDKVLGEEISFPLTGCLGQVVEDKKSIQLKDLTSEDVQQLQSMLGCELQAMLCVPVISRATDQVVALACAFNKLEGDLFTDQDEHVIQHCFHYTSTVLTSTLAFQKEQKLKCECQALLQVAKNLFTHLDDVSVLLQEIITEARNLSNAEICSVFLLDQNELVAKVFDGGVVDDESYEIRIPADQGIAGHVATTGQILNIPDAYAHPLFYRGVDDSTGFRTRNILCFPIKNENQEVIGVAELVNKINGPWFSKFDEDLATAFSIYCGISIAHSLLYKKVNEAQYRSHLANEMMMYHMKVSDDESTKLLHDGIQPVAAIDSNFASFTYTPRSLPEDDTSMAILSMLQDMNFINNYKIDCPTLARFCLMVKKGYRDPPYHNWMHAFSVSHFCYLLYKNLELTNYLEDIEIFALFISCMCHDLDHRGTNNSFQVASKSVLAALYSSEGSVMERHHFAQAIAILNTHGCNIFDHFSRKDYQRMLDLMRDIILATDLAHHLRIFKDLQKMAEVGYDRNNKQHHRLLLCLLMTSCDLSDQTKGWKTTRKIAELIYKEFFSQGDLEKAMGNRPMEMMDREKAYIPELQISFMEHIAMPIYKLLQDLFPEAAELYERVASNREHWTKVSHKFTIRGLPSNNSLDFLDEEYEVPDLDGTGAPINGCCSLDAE

Ki (human PDE2A1; [1])	Compound	other results
	CC(C)C(C)(NC(=O)c1cc(=O)[nH]c(N(C)C)n1)c1ccc(S(F)(F)(F)(F)F)cc1 (single isomer, unassigned) [Example 172, (R)- or (S)-2-dimethylamino)-N-{1,2-dimethyl-1-[4-(pentafluoro-λ^6-sulfanyl)phenyl]propyl}-6-oxo-1,6-dihydropyrimidine-4-carboxamide]	Ki (Rhesus PDE2A3; Rhesus PDE2 Ki (nM) - Lab B, Lab B): 154 nM
	Cc1cnn(-c2nc(C(=O)N[C@H](C)c3ccc(C(F)(F)F)cc3)cc(=O)[nH]2)c1 [Example 7, (R)-2-(4-methyl-1H-pyrazol-1-yl)-6-oxo-N-(1-(4-(trifluoromethyl)phenyl)ethyl)-1,6-dihydropyrimidine-4-carboxamide]	inhibition at 1 µM (Rhesus PDE2A3; Lab A): 25%
	Cc1ccn(-c2nc(C(=O)N[C@H](C)c3ccc(C(F)(F)F)cc3)cc(=O)[nH]2)n1 [Example 8, (R)-2-(3-methyl-1H-pyrazol-1-yl)-6-oxo-N-(1-(4-(trifluoromethyl)phenyl)ethyl)-1,6-dihydropyrimidine-4-carboxamide]	inhibition at 1 µM (Rhesus PDE2A3; Lab A): 30%
	C[C@@H](NC(=O)c1cc(=O)[nH]c(-n2cccn2)n1)c1ccc(C(F)(F)F)cc1 [Example 9, (R)-6-oxo-2-(1H-pyrazol-1-yl)-N-(1-(4-(trifluoromethyl)phenyl)ethyl)-1,6-dihydropyrimidine-4-carboxamide]	inhibition at 1 µM (Rhesus PDE2A3; Lab A): 26%
	CSc1nc(C(=O)N[C@@H](C)c2ccc(C(F)(F)F)cc2)cc(=O)[nH]1 [Example 16, (S)-2-(methylthio)-6-oxo-N-(1-(4-(trifluoromethyl)phenyl)ethyl)-1,6-dihydropyrimidine-4-carboxamide]	Ki (Rhesus PDE2A3; Lab A, read-out: Rhesus PDE2 Ki (nM) - Lab A): 13300 nM
	CC(C)[C@@H](NC(=O)c1cc(=O)[nH]c(N2CC[C@@H](O)C2)n1)c1ccc(OC(F)(F)F)c(F)c1 [Example 166, N-{(1R)-1-[3-fluoro-4-(trifluoromethoxy)phenyl]-2-methylpropyl}-2-[(3R)-3-hydroxypyrrolidin-1-yl]-6-oxo-1,6-dihydropyrimidine-4-carboxamide]	Ki (human PDE2A1; Lab A, read-out: Human PDE2 Ki (nM) - Lab A): 1.3 nM
81 nM	CN(C)c1nc(C(=O)NC(c2ccccc2)c2ccc(C(F)(F)F)cc2)cc(=O)[nH]1 (stereo not drawn) [Example 195, 2-(dimethylamino)-6-oxo-N-{phenyl[4-(trifluoromethyl)phenyl]methyl}-1,6-dihydropyrimidine-4-carboxamide]	
91 nM	CN(C)c1nc(C(=O)NC(c2ccncc2)c2ccc(C(F)(F)F)cc2)cc(=O)[nH]1 (stereo not drawn) [Example 196, 2-(dimethylamino)-6-oxo-N-{pyridin-4-yl[4-(trifluoromethyl)phenyl]methyl}-1,6-dihydropyrimidine-4-carboxamide]	
3.6 nM	CC(=O)C(NC(=O)c1cc(=O)[nH]c(N(C)C)n1)c1ccc(C(F)(F)F)cc1 (stereo not drawn) [Example 197, 2-(dimethylamino)-6-oxo-N-{2-oxo-1-[4-(trifluoromethyl)phenyl]propyl}-1,6-dihydropyrimidine-4-carboxamide]	
863 nM	CN(C)c1nc(C(=O)N[C@H]2COCc3cc(C(F)(F)F)ccc32)cc(=O)[nH]1 [Example 198, 2-(dimethylamino)-6-oxo-N-[(4R)-7-(trifluoromethyl)-3,4-dihydro-1H-isochromen-4-yl]-1,6-dihydropyrimidine-4-carboxamide]	
27 nM	CN(C)c1nc(C(=O)NC(C#N)c2ccc(C(F)(F)F)cc2)cc(=O)[nH]1 (stereo not drawn) [Example 199, N-{cyano[4-(trifluoromethyl)phenyl]methyl}-2-(dimethylamino)-6-oxo-1,6-dihydropyrimidine-4-carboxamide]	
0.52 nM	CN(C)c1nc(C(=O)N[C@](C)(CO)c2ccc(C(F)(F)F)cc2Cl)cc(=O)[nH]1 [Example 200, N-{(1S)-1-[2-chloro-4-(trifluoromethyl)phenyl]-2-hydroxy-1-methylethyl}-2-(dimethylamino)-6-oxo-1,6-dihydropyrimidine-4-carboxamide]	
18 nM	CN(C)c1nc(C(=O)NC2(c3ccc(OC(F)(F)F)cc3)CCC2)cc(=O)[nH]1 [Example 201, 2-(dimethylamino)-6-oxo-N-{1-[4-(trifluoromethoxy)phenyl]cyclobutyl}-1,6-dihydropyrimidine-4-carboxamide]	
5.4 nM	CN(C)c1nc(C(=O)NC2(c3ccc(C(F)(F)F)cc3)CCCC2)cc(=O)[nH]1 [Example 202, 2-(dimethylamino)-6-oxo-N-{1-[4-(trifluoromethyl)phenyl]cyclopentyl}-1,6-dihydro-pyrimidine-4-carboxamide]	
22 nM	CN(C)c1nc(C(=O)NC(CC#N)c2ccc(C(F)(F)F)cc2)cc(=O)[nH]1 (stereo not drawn) [Example 203, N-{2-cyano-1-[4-(trifluoromethyl)phenyl]ethyl}-2-(dimethylamino)-6-oxo-1,6-dihydropyrimidine-4-carboxamide]	
129 nM	CN(C)c1nc(C(=O)N[C@H]2CCCc3cc(C(F)(F)F)ccc32)cc(=O)[nH]1 [Example 204, 2-(dimethylamino)-6-oxo-N-[(1S)-6-(trifluoromethyl)-1,2,3,4-tetrahydronaphthalen-1-yl]-1,6-dihydropyrimidine-4-carboxamide]	
49 nM	COC(=O)C(NC(=O)c1cc(=O)[nH]c(N(C)C)n1)c1ccc(C(F)(F)F)cc1 (stereo not drawn) [Example 205, methyl ({[2-(dimethylamino)-6-oxo-1,6-dihydropyrimidin-4-yl]carbonyl}amino)[4-(trifluoromethyl)phenyl]acetate]	
7.2 nM	CN(C)c1nc(C(=O)NC(CO)c2ccc(C(F)(F)F)cc2)cc(=O)[nH]1 (stereo not drawn) [Example 206, 2-(dimethylamino)-N-{2-hydroxy-1-[4-(trifluoromethyl)phenyl]ethyl}-6-oxo-1,6-dihydropyrimidine-4-carboxamide]	
2.9 nM	CN(C)c1nc(C(=O)NC(c2ccc(C(F)(F)F)cc2)C(F)(F)F)cc(=O)[nH]1 (stereo not drawn) [Example 207, 2-(dimethylamino)-6-oxo-N-{2,2,2-trifluoro-1-[4-(trifluoromethyl)phenyl]ethyl}-1,6-dihydropyrimidine-4-carboxamide]	
0.12 nM	CN(C)c1nc(C(=O)N[C@@H](c2ccc(OC(F)(F)F)c(F)c2)C(C)(C)O)cc(=O)[nH]1 [Example 208, 2-(dimethylamino)-N-{(1S)-1-[3-fluoro-4-(trifluoromethoxy)phenyl]-2-hydroxy-2-methylpropyl}-6-oxo-1,6-dihydropyrimidine-4-carboxamide]	
3.9 nM	CN(C)c1nc(C(=O)N[C@@](C)(CO)c2ccc(C(F)(F)F)cc2Cl)cc(=O)[nH]1 [Example 209, N-{(1R)-1-[2-chloro-4-(trifluoromethyl)phenyl]-2-hydroxy-1-methylethyl}-2-(dimethylamino)-6-oxo-1,6-dihydropyrimidine-4-carboxamide]	
0.54 nM	CN(C)c1nc(C(=O)N[C@@H](c2ccc(OC(F)(F)F)cc2Cl)C(C)(C)O)cc(=O)[nH]1 [Example 210, N-{(1S)-1-[2-chloro-4-(trifluoromethoxy)phenyl]-2-hydroxy-2-methylpropyl}-2-(dimethylamino)-6-oxo-1,6-dihydropyrimidine-4-carboxamide]	
0.073 nM	CN(C)c1nc(C(=O)N[C@@H](c2ccc(S(F)(F)(F)(F)F)cc2)C(C)(C)O)cc(=O)[nH]1 [Example 211, 2-(dimethylamino)-N-{(1S)-2-hydroxy-2-methyl-1-[4-(pentafluoro-λ^6-sulfanyl)phenyl]propyl}-6-oxo-1,6-dihydropyrimidine-4-carboxamide]	
9.2 nM	CN(C)c1nc(C(=O)NC2(c3ccc(C(F)(F)F)cc3)COC2)cc(=O)[nH]1 [Example 212, 2-(dimethylamino)-6-oxo-N-{3-[4-(trifluoromethyl)phenyl]oxetan-3-yl}-1,6-dihydropyrimidine-4-carboxamide]	
